The values that follow are results of earlier work, collected in paper PMC5487681, “Identification of Antifungal H^+-ATPase Inhibitors with Effect on Plasma Membrane Potential” (Antimicrobial Agents and Chemotherapy, 2017).

For one series, the system named is S. cerevisiae cells. Details: method as in PMID 19413991. As to conditions: cited from earlier work.
Series [1] relates to Saccharomyces cerevisiae ATCC 9763. As to conditions: pH 3; cited from earlier work.

Turning to `COc1ccc2[nH]c([S+]([O-])Cc3ncc(C)c(OC)c3C)nc2c1` (centres unmarked) [omeprazole], the “Increase in iATP levels, S. cerevisiae” value in the series on S. cerevisiae cells is 36%. The “Concentration required for full growth inhibition of Saccharomyces cerevisiae” value in series [1] was 430 µM.
